Holding throughout (assay type): biochemical
The target in one assay is TYK2 (Homo sapiens, UniProt P29597). Kind of assay: TYK2 kinase inhibition (Table A1). To be noted: Table D1.
Assay [1] has as its target T1, human JAK3 (a.a. 781-1124) (Homo sapiens, UniProt P52333).
T1 construct: JAK3 (a.a. 781-1124); His tag (N); made in house; host or cells: insect cells (baculovirus)
Nature of the assay: In vitro JAK kinase assay (HTRF, phosphorylation of a biotinylated peptide), JAK3. To be noted: Table D1. Summed up: (§1)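 Kinase activity was measured as phosphorylation of a biotinylated peptide, with ATP at 90 μM for JAK1, 30 μM for JAK2 and 3 μM for JAK3. Reactions ran 1 hr at room temperature, were stopped with EDTA plus SA-APC and Eu-Py20, and were read by HTRF after 40 minutes of antibody binding.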
A general note: In TR-FRET formats the signal depends on donor and acceptor labels being close together.

The target of assay [2] is T2, human JAK1 (a.a. 837-1142) (Homo sapiens, UniProt P23458).
T2 construct: human JAK1 (a.a. 837-1142); His tag (N); made in house; host or cells: insect cells (baculovirus)
T2 sequence (P23458 849-1154): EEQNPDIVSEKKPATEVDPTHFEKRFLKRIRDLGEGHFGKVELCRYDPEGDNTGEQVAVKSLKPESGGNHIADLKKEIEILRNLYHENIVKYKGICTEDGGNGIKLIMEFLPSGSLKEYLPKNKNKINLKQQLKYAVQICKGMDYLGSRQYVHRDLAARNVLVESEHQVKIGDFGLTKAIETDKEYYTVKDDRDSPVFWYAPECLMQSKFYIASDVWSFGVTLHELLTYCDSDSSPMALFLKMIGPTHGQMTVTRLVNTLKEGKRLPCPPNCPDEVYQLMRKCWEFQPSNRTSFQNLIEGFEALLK
Kind of assay: In vitro JAK kinase assay (HTRF, phosphorylation of a biotinylated peptide), JAK1. As to conditions: Table D1; read-out: JAK1 IC50. In outline: as §1

Assay [3] deals with T3, human JAK2 (a.a. 828-1132) (Homo sapiens, UniProt O60674).
T3 construct: JAK2 (a.a. 828-1132); His tag (N); made in house; host or cells: insect cells (baculovirus)
T3 sequence (O60674 828-1132): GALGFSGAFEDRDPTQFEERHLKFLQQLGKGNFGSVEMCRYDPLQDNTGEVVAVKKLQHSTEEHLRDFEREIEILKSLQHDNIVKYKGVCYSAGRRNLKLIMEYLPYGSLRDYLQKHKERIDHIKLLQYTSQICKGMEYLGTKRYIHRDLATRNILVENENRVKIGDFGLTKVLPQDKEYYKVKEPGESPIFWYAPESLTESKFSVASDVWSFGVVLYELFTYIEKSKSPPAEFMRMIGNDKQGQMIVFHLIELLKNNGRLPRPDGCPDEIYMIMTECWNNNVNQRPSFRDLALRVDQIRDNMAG
Nature of the assay: In vitro JAK kinase assay (HTRF, phosphorylation of a biotinylated peptide), JAK2. To be noted: Table D1. In outline: as §1

Sequence of TYK2 (P29597 whole entry): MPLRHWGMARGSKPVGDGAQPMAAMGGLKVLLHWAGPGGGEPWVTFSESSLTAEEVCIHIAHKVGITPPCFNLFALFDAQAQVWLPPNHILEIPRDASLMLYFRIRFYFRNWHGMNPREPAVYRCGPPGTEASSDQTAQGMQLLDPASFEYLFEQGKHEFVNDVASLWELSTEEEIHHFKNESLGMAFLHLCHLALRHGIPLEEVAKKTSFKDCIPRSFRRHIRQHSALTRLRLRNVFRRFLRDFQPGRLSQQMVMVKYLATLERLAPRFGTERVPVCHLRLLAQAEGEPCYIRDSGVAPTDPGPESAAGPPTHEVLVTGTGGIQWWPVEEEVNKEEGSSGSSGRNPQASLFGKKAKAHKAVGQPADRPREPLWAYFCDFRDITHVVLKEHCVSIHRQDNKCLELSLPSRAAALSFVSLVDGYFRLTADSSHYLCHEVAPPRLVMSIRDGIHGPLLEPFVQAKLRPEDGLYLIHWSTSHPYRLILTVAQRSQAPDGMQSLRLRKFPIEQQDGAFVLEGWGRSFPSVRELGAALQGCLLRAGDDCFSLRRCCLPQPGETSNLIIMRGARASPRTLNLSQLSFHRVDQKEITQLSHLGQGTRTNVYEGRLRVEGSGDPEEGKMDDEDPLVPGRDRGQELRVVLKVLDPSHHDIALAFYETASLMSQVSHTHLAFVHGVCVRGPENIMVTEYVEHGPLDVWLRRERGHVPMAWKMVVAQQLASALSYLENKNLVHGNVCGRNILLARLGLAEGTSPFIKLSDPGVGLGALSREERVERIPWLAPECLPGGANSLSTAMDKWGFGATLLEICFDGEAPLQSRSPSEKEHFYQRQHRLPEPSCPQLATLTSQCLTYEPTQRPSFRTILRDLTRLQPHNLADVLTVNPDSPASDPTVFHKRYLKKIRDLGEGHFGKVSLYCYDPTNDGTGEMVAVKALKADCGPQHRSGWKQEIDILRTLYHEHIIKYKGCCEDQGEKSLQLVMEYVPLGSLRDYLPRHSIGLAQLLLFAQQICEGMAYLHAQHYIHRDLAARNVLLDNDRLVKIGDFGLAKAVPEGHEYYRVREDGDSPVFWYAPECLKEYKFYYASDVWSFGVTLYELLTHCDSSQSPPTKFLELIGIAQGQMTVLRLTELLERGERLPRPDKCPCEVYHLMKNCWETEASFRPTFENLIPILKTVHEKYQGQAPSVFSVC
T1 sequence (P52333 781-1124): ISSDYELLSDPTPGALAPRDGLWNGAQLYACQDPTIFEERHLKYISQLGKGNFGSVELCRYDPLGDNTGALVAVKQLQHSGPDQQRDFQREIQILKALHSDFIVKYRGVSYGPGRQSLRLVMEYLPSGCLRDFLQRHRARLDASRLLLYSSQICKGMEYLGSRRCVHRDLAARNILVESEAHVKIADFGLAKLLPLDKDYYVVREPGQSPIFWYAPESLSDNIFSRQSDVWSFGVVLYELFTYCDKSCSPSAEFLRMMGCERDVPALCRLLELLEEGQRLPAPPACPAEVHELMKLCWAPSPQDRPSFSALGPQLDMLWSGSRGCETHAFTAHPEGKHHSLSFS

For the molecule `O=C(COc1ccc2cc1CCc1cncc(c1)Nc1ncc(Cl)c(n1)N2)N1CCN(c2cccc(C(F)(F)F)n2)CC1` [Example D248, 6-Chloro-12-(2-oxo-2-{4-[6-(trifluoromethyl)pyridin-2-yl]piperazin-1-yl}ethoxy)-2,4,8,18,22-pentaazatetracyclo[14.3.1.1(3,7).1(9,13)]docosa-1(20),3(22),4,6,9(21),10,12,16,18-nonaene tris(trifluoroacetate)], the IC50 – broadly, the concentration needed to halve the response being measured – against TYK2 is above 400 nM; in assay [1] it was above 400 nM; in assay [2], 59 nM; in assay [3], above 400 nM.

`COc1cccnc1N1CCN(C(=O)COc2ccc3cc2CCc2cncc(c2)Nc2ncc(Cl)c(n2)N3)CC1` [Example D249, 6-Chloro-12-{2-[4-(3-methoxypyridin-2-yl)piperazin-1-yl]-2-oxoethoxy}-2,4,8,18,22-pentaazatetracyclo[14.3.1.1(3,7).1(9,13)]docosa-1(20),3(22),4,6,9(21),10,12,16,18-nonaene tris(trifluoroacetate)]: the IC50 on TYK2 was above 400 nM; in assay [1], above 400 nM; in assay [2], 71 nM; in assay [3] it was above 400 nM.

Turning to `O=C(COc1ccc2cc1CCc1cncc(c1)Nc1ncc(Cl)c(n1)N2)N1CCN(c2noc3ccccc23)CC1` [Example D250, 12-{2-[4-(1,2-Benzisoxazol-3-yl)piperazin-1-yl]-2-oxoethoxy}-6-chloro-2,4,8,18,22-pentaazatetracyclo[14.3.1.1(3,7).1(9,13)]docosa-1(20),3(22),4,6,9(21),10,12,16,18-nonaene tris(trifluoroacetate)], the IC50 on TYK2 was above 400 nM; in assay [1], above 400 nM; in assay [2], 43 nM; in assay [3] it was 49 nM.

For `Cc1cc(C(=O)N2CCN(C(=O)COc3ccc4cc3CCc3cncc(c3)Nc3ncc(Cl)c(n3)N4)CC2)no1` [Example D251, 6-Chloro-12-(2-{4-[(5-methylisoxazol-3-yl)carbonyl]piperazin-1-yl}-2-oxoethoxy)-2,4,8,18,22-pentaazatetracyclo[14.3.1.1(3,7).1(9,13)]docosa-1(20),3(22),4,6,9(21),10,12,16,18-nonaene bis(trifluoroacetate)], the concentration for half-maximal inhibition (IC50) is above 400 nM on TYK2, above 400 nM in assay [1], 18 nM in assay [2] and 17 nM in assay [3].

In the case of `CC(=O)N1CCN(C(=O)COc2ccc3cc2CCc2cncc(c2)Nc2ncc(Cl)c(n2)N3)CC1` [Example D252, 12-[2-(4-Acetylpiperazin-1-yl)-2-oxoethoxy]-6-chloro-2,4,8,18,22-pentaazatetracyclo[14.3.1.1(3,7).1(9,13)]docosa-1(20),3(22),4,6,9(21),10,12,16,18-nonaene bis(trifluoroacetate)], the IC50 against TYK2 was above 400 nM; in assay [1] it was above 400 nM; in assay [2] it was 65 nM; in assay [3], 244 nM.

`O=C(COc1ccc2cc1CCc1cncc(c1)Nc1ncc(Cl)c(n1)N2)N1CCN(S(=O)(=O)c2ccccc2F)CC1` [Example D253, 6-Chloro-12-(2-{4-[(2-fluorophenyl)sulfonyl]piperazin-1-yl}-2-oxoethoxy)-2,4,8,18,22-pentaazatetracyclo[14.3.1.1(3,7).1(9,13)]docosa-1(20),3(22),4,6,9(21),10,12,16,18-nonaene bis(trifluoroacetate)]: the IC50 is above 400 nM against TYK2, above 400 nM in assay [1], 35 nM in assay [2] and 67 nM in assay [3].

In the case of `N#Cc1ccccc1S(=O)(=O)N1CCN(C(=O)COc2ccc3cc2CCc2cncc(c2)Nc2ncc(Cl)c(n2)N3)CC1` [Example D254, 2-{[4-({[6-Chloro-2,4,8,18,22-pentaazatetracyclo[14.3.1.1(3,7).1(9,13)]docosa-1(20),3(22),4,6,9(21),10,12,16,18-nonaen-12-yl]oxy}acetyl)piperazin-1-yl]sulfonyl}benzonitrile bis(trifluoroacetate)], the IC50 against TYK2 is 356 nM; in assay [1] it was above 400 nM; in assay [2], 8.1 nM; in assay [3], 49 nM.

In the case of `O=C(COc1ccc2cc1CCc1cncc(c1)Nc1ncc(Cl)c(n1)N2)N1CCN(Cc2cccnc2)CC1` [Example D255, 6-Chloro-12-{2-oxo-2-[4-(pyridin-3-ylmethyl)piperazin-1-yl]ethoxy}-2,4,8,18,22-pentaazatetracyclo[14.3.1.1(3,7).1(9,13)]docosa-1(20),3(22),4,6,9(21),10,12,16,18-nonaene tris(trifluoroacetate)], the IC50 against TYK2 is above 400 nM; in assay [1] it was above 400 nM; in assay [2], 90 nM; in assay [3], 226 nM.

In the case of `O=C(COc1ccc2cc1CCc1cncc(c1)Nc1ncc(Cl)c(n1)N2)N1CCN(Cc2ccncc2)CC1` [Example D256, 6-Chloro-12-{2-oxo-2-[4-(pyridin-4-ylmethyl)piperazin-1-yl]ethoxy}-2,4,8,18,22-pentaazatetracyclo[14.3.1.1(3,7).1(9,13)]docosa-1(20),3(22),4,6,9(21),10,12,16,18-nonaene tris(trifluoroacetate)], the concentration for half-maximal inhibition (IC50) is above 400 nM against TYK2, above 400 nM in assay [1], 150 nM in assay [2] and 217 nM in assay [3].

On to `O=C(COc1ccc2cc1CCc1cncc(c1)Nc1ncc(Cl)c(n1)N2)N1CCC(c2cc(-c3cccs3)[nH]n2)CC1` [Example D257, 6-Chloro-12-(2-oxo-2-{4-[5-(2-thienyl)-1H-pyrazol-3-yl]piperidin-1-yl}ethoxy)-2,4,8,18,22-pentaazatetracyclo[14.3.1.1(3,7).1(9,13)]docosa-1(20),3(22),4,6,9(21),10,12,16,18-nonaene tris(trifluoroacetate)], for which the concentration for half-maximal inhibition (IC50) at TYK2 is above 400 nM; in assay [1], above 400 nM; in assay [2], 63 nM; in assay [3] it was 112 nM.

For `O=C(COc1ccc2cc1CCc1cncc(c1)Nc1ncc(Cl)c(n1)N2)N1CCC(c2nc(-c3cccs3)no2)CC1` [Example D258, 6-Chloro-12-(2-oxo-2-{4-[3-(2-thienyl)-1,2,4-oxadiazol-5-yl]piperidin-1-yl}ethoxy)-2,4,8,18,22-pentaazatetracyclo[14.3.1.1(3,7).1(9,13)]docosa-1(20),3(22),4,6,9(21),10,12,16,18-nonaene bis(trifluoroacetate)], the IC50 on TYK2 was above 400 nM; in assay [1] it was above 400 nM; in assay [2], 70 nM; in assay [3], 113 nM.

For `O=C(COc1ccc2cc1CCc1cncc(c1)Nc1ncc(Cl)c(n1)N2)N1CCN(C(=O)c2ccc(F)cc2F)CC1` [Example D259, 6-Chloro-12-{2-[4-(2,4-difluorobenzoyl)piperazin-1-yl]-2-oxoethoxy}-2,4,8,18,22-pentaazatetracyclo[14.3.1.1(3,7).1(9,13)]docosa-1(20),3(22),4,6,9(21),10,12,16,18-nonaene bis(trifluoroacetate)], the concentration for half-maximal inhibition (IC50) against TYK2 is above 400 nM; in assay [1], above 400 nM; in assay [2], 42 nM; in assay [3] it was 37 nM.

The record behind these values is patent US8871753B2, “Macrocyclic compounds and their use as kinase inhibitors” (Incyte Corporation, priority 2008, dated 2014).
